PMC9301488, “Expression, Characterization, Fermentation, Immobilization, and Application of a Novel Esterase Est804 From Metagenomic Library in Pesticide Degradation” (Frontiers in Microbiology, 2022)

Test system: T1, Est804
T1 construct: expressed in E. coli BL21(DE3); lysate supernatant called crude, His-tag purification described for SDS-PAGE
Experiment: release of p-nitrophenol at […] nm, Lineweaver-Burk plot
Type: biochemical, soil metagenome
Settings: free enzyme; 0.0-5.0 mM substrate; Britton-Robinson buffer pH 6.8, 40 °C (standard conditions); crude lysate supernatant mentioned, purity of the kinetic sample not clear

Compound `CC(=O)Oc1ccc([N+](=O)[O-])cc1` [ρ-nitrophenyl acetate] has a Km of 613 µM.
